Test results: patent US5329002A, “Antibacterial cephalosporin compounds” (Hoffmann-La Roche Inc., priority 1990, dated 1994)
Structures can show the parent of a compound that is named as a salt. Where two headings read alike, the source gives them in different places.

How the values were obtained:
Assay type in all cases: cell-based
[1] = system: E. coli ATCC 25922; test: In vitro MIC, Broth Dilution Method, E. coli ATCC 25922; conditions: Escherichia coli
Source text: (§1) The in vitro activity of the compounds of the present invention as measured by the Minimum Inhibitory Concentration (MIC) in micrograms/ml utilizing the Broth Dilution Method against a variety of Gram-positive and Gram-negative organisms, is as follows:
(§2) Concentration (MIC) in micrograms/ml utilizing the Broth Dilution Method against a variety of Gram-positive and Gram-negative organisms, is as follows:
(§3) In Vitro MIC (μg/ml), Broth Dilution Method

[2] = system: E. coli TEM 1; test: microbe, parasite or virus in culture; conditions: Escherichia coli, TEM1, read-out: In Vitro MIC
Source text: as §1, §2, §3

[3] = system: E. cloacae 5699; test: In vitro MIC, Broth Dilution Method, E. cloacae 5699
Source text: as §1, §2, §3

[4] = system: E. cloacae P99; test: In vitro MIC, Broth Dilution Method, E. cloacae P99; conditions: Enterobacter cloacae, P99, read-out: In Vitro MIC
Source text: as §1, §2, §3

[5] = system: S. marcescens 1071; test: In vitro MIC, Broth Dilution Method, S. marcescens 1071
[6] = system: P. aeruginosa 8710; test: In vitro MIC, Broth Dilution Method, P. aeruginosa 8710; conditions: Pseudomonas aeruginosa
Source text: as §1, §2, §3

[7] = system: P. aeruginosa 18 S/H; test: In vitro MIC, Broth Dilution Method, P. aeruginosa 18 S/H; conditions: Pseudomonas aeruginosa
Source text: as §1, §2, §3

[8] = system: E. faecalis ATCC 29212; test: In vitro MIC, Broth Dilution Method, E. faecalis ATCC 29212; conditions: Enterococcus faecalis, ATCC29212
Source text: as §1, §2, §3

[9] = system: S. pneumoniae 6301; test: In vitro MIC, Broth Dilution Method, S. pneumoniae 6301
Source text: as §1, §2, §3

[10] = system: S. aureus 1059B; test: In vitro MIC, Broth Dilution Method, S. aureus 1059B; conditions: Staphylococcus aureus
[11] = system: S. aureus 95; test: In vitro MIC, Broth Dilution Method, S. aureus 95
Source text: as §1, §2, §3

[12] = system: S. aureus ATCC 29213; test: In vitro MIC, Broth Dilution Method, S. aureus ATCC 29213; conditions: Staphylococcus aureus
[13] = ATCC25922, read-out: In Vitro MIC
[14] = Enterobacter cloacae, Broth Dilution Method, E. cloacae 5699, read-out: In Vitro MIC
[15] = Serratia marcescens, Broth Dilution Method, S. marcescens 1071, read-out: In Vitro MIC
[16] = Streptococcus pneumoniae, 6301, read-out: In Vitro MIC
[17] = Staphylococcus aureus, Broth Dilution Method, S. aureus 95, read-out: In Vitro MIC
[18] = ATCC29213, Broth Dilution Method, S. aureus ATCC 29213, read-out: In Vitro MIC
[19] = Enterobacter cloacae, 5699, read-out: In Vitro MIC
[20] = Streptococcus pneumoniae, Broth Dilution Method, S. pneumoniae 6301, read-out: In Vitro MIC
[21] = Staphylococcus aureus, 95, read-out: In Vitro MIC

SMILES: CO/N=C(\C(=O)N[C@@H]1C(=O)N2C(C(=O)O)=C(C[N+]3(C)CCN(c4c(F)cc5c(=O)c(C(=O)O)cn(CCF)c5c4F)CC3)CS[C@H]12)c1csc(N)n1 [Compound A, [6R-[6α,7β(Z)]]-1-[7-[[[(2-amino-4-thiazolyl)(methoxyimino)acetyl]amino]-2-carboxy-8-oxo-5-thia-1-azabicyclo[4.2.0]oct-2-en-3-yl]methyl]-4-[3-carboxy-6,8-difluoro-1-(2-fluoroethyl)-1,4-dihydro-4-oxo-7-quinolinyl]-1-methylpiperazinium iodide]
- MIC [1, 13]: 0.25 µg/mL
- MIC [2]: 0.25 µg/mL
- MIC [3, 14]: 0.5 µg/mL
- MIC [4]: 0.5 µg/mL
- MIC [5, 15]: 0.5 µg/mL
- MIC [6]: 8 µg/mL
- MIC [7]: 8 µg/mL
- MIC [8]: 64 µg/mL
- MIC [9, 16]: 0.063 µg/mL
- MIC [10]: 2 µg/mL
- MIC [11, 17]: 4 µg/mL
- MIC [12, 18]: 4 µg/mL

SMILES: CC(C)(O/N=C(\C(=O)N[C@@H]1C(=O)N2C(C(=O)[O-])=C(C[N+]3(C)CCN(c4c(F)cc5c(=O)c(C(=O)O)cn(CCF)c5c4F)CC3)CS[C@H]12)c1csc(N)n1)C(=O)O [Compound C, [6R-[6α,7β(Z)]]-1-[[7-[[[(2-amino-4-thiazolyl)[1-(1-carboxy-1-methyl)ethoxy]imino]acetyl]amino]-8-oxo-5-thia-1-azabicyclo-[4.2.0]oct-2-en-3-yl]methyl]-4-[3-carboxy-1-(2-fluoroethyl)-6,8-difluoro-1,4-dihydro-4-oxoquinolin-7-yl]-1-methylpiperazinium hydroxide inner salt monosodium salt]
- MIC ([1]; ATCC25922, Broth Dilution Method, E. coli ATCC 25922, read-out: In Vitro MIC): 0.25 µg/mL
- MIC [2]: 0.5 µg/mL
- MIC [3, 19]: 0.5 µg/mL
- MIC [4]: 2 µg/mL
- MIC ([5]; Serratia marcescens, 1071, read-out: In Vitro MIC): 0.5 µg/mL
- MIC [6]: 8 µg/mL
- MIC [7]: 8 µg/mL
- MIC [8]: 32 µg/mL
- MIC [9, 20]: 1 µg/mL
- MIC [10]: 8 µg/mL
- MIC [11, 21]: 4 µg/mL
- MIC ([12]; ATCC29213, read-out: In Vitro MIC): 4 µg/mL

SMILES: C[N+]1(CC2=C(C(=O)O)N3C(=O)[C@@H](NC(=O)COc4ccccc4)[C@H]3SC2)CCN(c2c(F)cc3c(=O)c(C(=O)O)cn(CCF)c3c2F)CC1.[I-] [Compound B, (6R-trans)-4-[3-carboxy-1-(2-fluoroethyl)-6,8-difluoro-1,4-dihydro-4-oxoquinolin-7-yl]-1-[[2-carboxy-8-oxo-7-[(phenoxyacetyl)amino]-5-thia-1-azabicyclo-[4.2.0]oct-2-en-3-yl]methyl]-1-methyl-piperazinium iodide]
- MIC [1, 13]: 0.5 µg/mL
- MIC [2]: 0.5 µg/mL
- MIC [3, 19]: 0.5 µg/mL
- MIC [4]: 0.5 µg/mL
- MIC [6]: 8 µg/mL
- MIC [7]: 4 µg/mL
- MIC [8]: 32 µg/mL
- MIC [9, 20]: 0.25 µg/mL
- MIC [11, 21]: 1 µg/mL

SMILES: C[N+]1(CC2=C(C(=O)O)N3C(=O)[C@@H](NC=O)[C@H]3SC2)CCN(c2c(F)cc3c(=O)c(C(=O)O)cn(CCF)c3c2F)CC1 [Compound E, trifluoroacetate salt]
- MIC [1, 13]: 0.5 µg/mL
- MIC [2]: 0.5 µg/mL
- MIC [3, 19]: 0.5 µg/mL
- MIC [4]: 0.5 µg/mL
- MIC [5, 15]: 1 µg/mL
- MIC [6]: 8 µg/mL
- MIC [7]: 8 µg/mL
- MIC [8]: 32 µg/mL
- MIC [9, 20]: 1 µg/mL
- MIC [10]: 0.5 µg/mL
- MIC [11, 17]: 1 µg/mL
- MIC [12, 18]: 0.5 µg/mL

SMILES: CCn1cc(C(=O)O)c(=O)c2cc(F)c(N3CC[N+](C)(CC4=C(C(=O)O)N5C(=O)[C@@H](NC(=O)/C(=N\OC)c6csc(N)n6)[C@H]5SC4)CC3)cc21 [Compound D, [6R-[6α,7β(Z)]]-1-[[7-[[(2-amino-4-thiazolyl)(methoxyimino)acetyl]amino]-2-carboxy-8-oxo-5-thia-1-azabicyclo[4.2.0]-oct-2-en-3-yl]methyl]-4-(3-carboxy-1-ethyl-6-fluoro-1,4-dihydro-4-oxo-7-quinolinyl)-1-methylpiperazinium iodide]
- MIC [1, 13]: 0.5 µg/mL
- MIC [2]: 0.5 µg/mL
- MIC [3, 14]: 1 µg/mL
- MIC [4]: 1 µg/mL
- MIC [5, 15]: 0.5 µg/mL
- MIC [6]: 8 µg/mL
- MIC [7]: 32 µg/mL
- MIC [8]: 32 µg/mL
- MIC [9, 16]: 0.063 µg/mL
- MIC [10]: 2 µg/mL
- MIC [11, 17]: 4 µg/mL
- MIC [12, 18]: 4 µg/mL
